From patent US5798391A, “Injectable solution of benzalkonium fluoride” (Aromafarm Limited, priority 1994, dated 1998)

How the values were obtained:
mice = experiment: LD 50, unique administration, Behrens and Karber method, mice; assay type: in vivo, albino mouse
Procedure: The high toxicity of benzalkonium fluoride in unique administration in mice and guinea pigs was determined by the Behrens and Karber method, by intracardiac, intravenous and intraperitoneal injection. The animals used were young adult albino mice and albino guinea pigs. Ten animals were used for each dose administered, five males and five females. The benzalkonium fluoride was used in a 3 g/l isotonic solution of sterile apyrogenic sodium chloride. We observed the animals for 7 days after unique administration carried out using a sterile needle adapted to a syringe graduated in 1/10 ml to allow the treatment of each animal with an exact dose. The animals were weighed each day during the observation period.
The LD 50 (lethal dose 50) was determined.

ADENOVIRUS Type 5 = experiment: virucidal activity of BKF, AFNOR T72-180, molecular screening (Table 3); assay type: cell-based; settings: 32° C.
Procedure: We have determined the virucide activity of tetradecyl-dimethyl-benzyl-ammonium fluoride (BKF) vis-a-vis vertebrate viruses in conformance with French Standard AFNOR T72-180, December 1989. This benzalkonium fluoride was diluted in solution in sterile distilled water at the following concentrations: 0.02, 0.01, 0.005% (weight divided by volume).
adenovirid.ae butted.: adenovirus type 5, cultivated on KB cell,
The water, the culture medium and the reagents are those recognised by Standard AFNOR T72-180. The titration of the virus is by reading the cytopathic test, following the method described in Standard AFNOR T72-180. The calculation of the infectious titration is by the FISHER and YATES method with the WYSHAK and DETRE tables. The results are given in number of infectious units per ml, or plaque-forming units per ml (PFU/ml).
The virucidal activity was then determined by the technique known as molecular screening, consisting of filtration on sephadex gel LH 20 and using subcytotoxic concentrations of benzalkonium fluoride. The virucidal activity was determined as a function of contact time between the benzalkonium fluoride and the viral strain. […] The virucidal activity of benzalkonium fluoride (BKF) is determined by the minimal concentration and minimal contact time with the virus which provoked a reduction of infectious titration of the viruses by a logarithmic factor of a least 4. […]

[1] = tested on: mycobacterium tuberculosis (wild strain); experiment: activity in vitro on mycobacterium tuberculosis, B[…] medium surface impregnation method; assay type: cell-based; design: key to culture of Bacterium Tuberculosis: (+++): positive culture; (-): negative culture
Procedure: We determined the activity in vitro of benzalkonium fluoride on the mycobacterium tuberculosis (wild strain).
This experiment was carried out with the B[…] medium surface impregnation method. The quantity of active substance absorbed by the medium is expressed in cm^2.
The volume of the appropriate dilution of benzalkonium fluoride was 0.25 ml per tube of medium in order to arrive at concentrations of benzalkonium fluoride of 0.1, 0.2 and 0.3% per cm^2 surface of B[…] medium.
A control tube, without benzalkonium fluoride, was used for each of the series.
Three series of tests were carried out with dilutions of 0.1, 0.01 and 0.001 of the mother solution of the Bacterium Tuberculosis strain prepared at 1 mg/ml.
All the tests were carried out in double.

With CCCCCCCCCCCCCC[N+](C)(C)Cc1ccccc1.[F-] [benzalkonium fluoride, tetradecyl-dimethyl-benzyl-ammonium fluoride] the “LD 50” value (mice; female mouse, intraperitoneal) was 34.60 mg/mL, the “LD 50” value (mice; female mouse, intravenous) was 36.60 mg/mL and the “acute toxicity, overall” value (mice; intravenous, intraperitoneal or intracardiac injection, mice and guinea pigs) was “sufficiently low toxicity”. For the same compound, the “LD 50” value (mice; male mouse, intraperitoneal) was 33.10 mg/mL, the “LD 50” value (mice; male mouse, intravenous) was 33.24 mg/mL and the “virucidal activity: minimal contact time” value (ADENOVIRUS Type 5; 0.02% (m/V)) was 120 min. The “virucidal activity: minimal concentration (reduction by logarithmic factor of at least 4)” value (ADENOVIRUS Type 5; 120 minutes contact) was 0.02 % (m/V), the “inhibition of the culture” value ([1]; 0.1, 0.2 and 0.3% per cm^2, dilutions 0.1, 0.01 and 0.001, four weeks at 37° C.) was “an inhibition of the culture” and the “culture of Bacterium Tuberculosis” value ([1]; BKF 0.1%/cm^2, BK dilution 0.001, in double) was “(-)”. For the same compound, the “culture of Bacterium Tuberculosis” value ([1]; BKF 0.1%/cm^2, BK dilution 0.01, in double) was “(-)”, the “culture of Bacterium Tuberculosis” value ([1]; BKF 0.1%/cm^2, BK dilution 0.1, in double) was “(-)” and the “culture of Bacterium Tuberculosis” value ([1]; BKF 0.2%/cm^2, BK dilution 0.001, in double) was “(-)”. The “culture of Bacterium Tuberculosis” value ([1]; BKF 0.2%/cm^2, BK dilution 0.01, in double) was “(-)”, the “culture of Bacterium Tuberculosis” value ([1]; BKF 0.2%/cm^2, BK dilution 0.1, in double) was “(-)” and the “culture of Bacterium Tuberculosis” value ([1]; BKF 0.3%/cm^2, BK dilution 0.001, in double) was “(-)”. For the same compound, the “culture of Bacterium Tuberculosis” value ([1]; BKF 0.3%/cm^2, BK dilution 0.01, in double) was “(-)” and the “culture of Bacterium Tuberculosis” value ([1]; BKF 0.3%/cm^2, BK dilution 0.1, in double) was “(-)”.
